Results on 10 compounds are retold here after ChEMBL document CHEMBL1201862, “PubChem BioAssay data set” (2004).

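Values below derive from 48-hour exposures of cells grown in 96-well plates, with endpoints linearly interpolated between the two concentrations bracketing the appropriate inhibition level. GI50 = concentration required for 50% inhibition of growth.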 The source made the active and inactive calls. Rule as the data show it: active = GI50 up to about 1.1 µM and inactive = higher.

Among the test systems are LOX IMVI; M14; A498; SN12C; MCF7; SNB-19; U-251; NCI-H226; SK-MEL-5; SF-295; SNB-75; K562; HOP-92; UACC-62; HT-29; HL-60; KM12; TK-10; SW-620.
Holding throughout (assay): growth of human tumour cells (NCI), 48 h

`CSC1=NN(C(C)=O)C(C(OC(C)=O)C(OC(C)=O)C(OC(C)=O)C(COC(C)=O)OC(C)=O)S1` (stereo not given): the GI50 with LOX IMVI, in the assay on M14, in the assay with A498, with SN12C, with MCF7 and in the assay with SNB-19 was > 100 µM (inactive) in each case. Moreover, the GI50 in the assay on U-251, with NCI-H226, in the assay with SK-MEL-5, in the assay on SF-295, in the assay with SNB-75 and in the assay on K562 was > 100 µM (inactive) in each case. Further, the GI50 in the assay on HOP-92, with UACC-62, in the assay with HT-29, in the assay with HL-60, with KM12 and in the assay with TK-10 was > 100 µM (inactive) throughout. In the assay with SW-620, the GI50 is > 100 µM (inactive).

As for `Cn1c2ccccc2n2c3ccccc3c(=O)c(C#N)c12`, the GI50 is 4.38 µM (inactive) in the assay with LOX IMVI; > 75.3 µM (inactive) in the assay on M14; 18.3 µM (inactive) with A498; 17.9 µM (inactive) with SN12C; 10.1 µM (inactive) with MCF7; 16.5 µM (inactive) in the assay on SNB-19. Further, the GI50 in the assay with U-251 was 12 µM (inactive); in the assay with NCI-H226, 2.68 µM (inactive); in the assay with SK-MEL-5 it was 2.27 µM (inactive); in the assay on SF-295 it was 12.6 µM (inactive); in the assay on SNB-75, 15 µM (inactive); with K562 it was 9.79 µM (inactive). Also, the GI50 in the assay with HOP-92 was 15.3 µM (inactive); in the assay on UACC-62, 8.11 µM (inactive); in the assay on HT-29, 4.53 µM (inactive); with HL-60, 3.41 µM (inactive); in the assay on KM12, 12 µM (inactive); with TK-10, > 55 µM (inactive). For the same compound, the GI50 with SW-620 is 4.62 µM (inactive).

With `O=C(/C=C/c1ccccc1O)CC(=O)/C=C/c1ccccc1O`, the GI50 in the assay on LOX IMVI is 1.32 µM (inactive); in the assay with M14, 12.8 µM (inactive); in the assay with A498, 23.3 µM (inactive); in the assay on SN12C it was 5.38 µM (inactive); in the assay with MCF7, 4.14 µM (inactive); in the assay on SNB-19 it was 9.84 µM (inactive). For the same compound, the GI50 is 4.26 µM (inactive) in the assay with U-251; > 10 µM (inactive) in the assay with NCI-H226; 5.32 µM (inactive) with SK-MEL-5; 6.53 µM (inactive) in the assay with SF-295; > 46.2 µM (inactive) in the assay with SNB-75; 3.82 µM (inactive) in the assay on K562. Besides, the GI50 is 5.81 µM (inactive) in the assay with HOP-92; 4.93 µM (inactive) in the assay on UACC-62; 1.84 µM (inactive) with HT-29; 3.24 µM (inactive) in the assay with HL-60; 6.4 µM (inactive) in the assay with KM12; 23.7 µM (inactive) with TK-10. Also, in the assay on SW-620, the GI50 was 4.51 µM (inactive).

For the compound `COc1cc(/C=C/c2cc(=O)cc(/C=C/c3ccc(O)c(OC)c3)o2)ccc1O`, the GI50 was 29.6 µM (inactive) in the assay with LOX IMVI; > 100 µM (inactive) in the assay with M14; > 100 µM (inactive) in the assay on A498; > 60.3 µM (inactive) with SN12C; 6.27 µM (inactive) with MCF7; > 92 µM (inactive) in the assay on SNB-19. The GI50 is 25.5 µM (inactive) in the assay with U-251; 29.3 µM (inactive) in the assay on NCI-H226; 13.6 µM (inactive) in the assay on SK-MEL-5; 32.4 µM (inactive) with SF-295; 29.9 µM (inactive) in the assay on SNB-75; > 21 µM (inactive) with K562. Further, the GI50 in the assay with HOP-92 is 17.9 µM (inactive); in the assay on UACC-62, 44.1 µM (inactive); in the assay on HT-29, > 80.4 µM (inactive); in the assay with HL-60 it was 15.7 µM (inactive); in the assay with KM12, > 38.3 µM (inactive); in the assay on TK-10, > 75.5 µM (inactive). Besides, the GI50 in the assay on SW-620 is > 35.5 µM (inactive).

`COC(=O)C(/C(=N/N)C(=O)Nc1cccc(O)c1)c1nc2ccccc2nc1O` (stereo not given): the GI50 in the assay on LOX IMVI, in the assay on M14, in the assay on A498, in the assay with SN12C, in the assay on MCF7 and in the assay with SNB-19 was > 100 µM (inactive) in each case. The GI50 with U-251, in the assay with NCI-H226, in the assay on SK-MEL-5, in the assay on SF-295, in the assay with SNB-75 and in the assay on K562 was > 100 µM (inactive) in each case. Moreover, the GI50 in the assay on HOP-92, in the assay with UACC-62, in the assay on HT-29, with HL-60, in the assay with KM12 and in the assay with TK-10 was > 100 µM (inactive) in each case. Further, the GI50 in the assay on SW-620 is > 100 µM (inactive).

Turning to `COC(=O)C1c2c(c3ccccc3n2C(=O)OC)CCN2CCC1C(S(=O)(=O)c1ccccc1)C2=O` (stereo not given), the GI50 in the assay with LOX IMVI is > 100 µM (inactive); in the assay on M14 it was > 100 µM (inactive); in the assay with A498, > 100 µM (inactive); in the assay on SN12C, > 100 µM (inactive); in the assay on MCF7, > 100 µM (inactive); in the assay on SNB-19, 94.6 µM (inactive). Moreover, the GI50 in the assay with U-251 is > 100 µM (inactive); with NCI-H226, 24 µM (inactive); in the assay with SK-MEL-5 it was > 100 µM (inactive); in the assay with SF-295, > 100 µM (inactive); in the assay with SNB-75, > 100 µM (inactive); with K562 it was > 100 µM (inactive). Moreover, the GI50 was > 100 µM (inactive) in the assay on HOP-92; > 100 µM (inactive) in the assay on UACC-62; > 100 µM (inactive) with HT-29; 90.6 µM (inactive) in the assay with HL-60; > 100 µM (inactive) in the assay on KM12; > 100 µM (inactive) in the assay with TK-10. For the same compound, the GI50 in the assay with SW-620 was > 100 µM (inactive).

For `O=C(c1c(F)c(F)c(F)c(F)c1F)n1c(O)nc2ccccc21`, the GI50 is 3.83 µM (inactive) with LOX IMVI; 9.33 µM (inactive) with M14; 19.1 µM (inactive) in the assay with A498; 14.1 µM (inactive) with SN12C; 4.04 µM (inactive) in the assay with MCF7; 14.9 µM (inactive) in the assay on SNB-19. In addition, the GI50 in the assay on U-251 was 12.5 µM (inactive); in the assay on NCI-H226, 17.3 µM (inactive); in the assay on SK-MEL-5, 15.2 µM (inactive); with SF-295 it was 16.4 µM (inactive); in the assay with SNB-75, 16.5 µM (inactive); with K562 it was 3.51 µM (inactive). The GI50 is 2.88 µM (inactive) with HOP-92; 12.1 µM (inactive) in the assay on UACC-62; 6.28 µM (inactive) with HT-29; 2.42 µM (inactive) in the assay on HL-60; 1.54 µM (inactive) in the assay with KM12; 5.19 µM (inactive) in the assay on TK-10. Besides, the GI50 in the assay on SW-620 is 4.91 µM (inactive).

For `CCCCc1ccc(Nc2nc(N)c3ncn(COCCO)c3n2)cc1`, the GI50 in the assay with LOX IMVI is 18.9 µM (inactive); in the assay with M14 it was 20.6 µM (inactive); in the assay with A498 it was 28.2 µM (inactive); in the assay with SN12C it was 33 µM (inactive); with MCF7 it was 37.4 µM (inactive); in the assay on SNB-19 it was 48.9 µM (inactive). In addition, the GI50 is 22.1 µM (inactive) with U-251; 44.3 µM (inactive) in the assay with NCI-H226; 18 µM (inactive) with SK-MEL-5; 19.8 µM (inactive) in the assay on SF-295; 32.6 µM (inactive) in the assay with SNB-75; 7.01 µM (inactive) in the assay with K562. For the same compound, the GI50 in the assay with HOP-92 is 18.2 µM (inactive); in the assay on UACC-62, 16.8 µM (inactive); in the assay on HT-29 it was 24.4 µM (inactive); with HL-60, 36.3 µM (inactive); in the assay on KM12, 32.8 µM (inactive); in the assay on TK-10, 52.6 µM (inactive). Also, the GI50 in the assay with SW-620 was 26.1 µM (inactive).

In the case of `C[C@@H]1C[C@H]2CC[C@H](O2)[C@H](C)C(=O)O[C@@H](C)C[C@@H]2CC[C@@H](O2)[C@@H](C)C(=O)O[C@H](C)C[C@H]2CC[C@H](O2)[C@H](C)C(=O)O[C@@H](C)C[C@@H]2CC[C@@H](O2)[C@@H](C)C(=O)O1`, the GI50 was 0.305 µM (active) in the assay with LOX IMVI; 0.434 µM (active) in the assay with M14; 0.859 µM (active) in the assay on A498; 0.366 µM (active) with SN12C; 0.326 µM (active) in the assay with MCF7; 0.366 µM (active) in the assay with SNB-19. Further, the GI50 with U-251 was 0.366 µM (active); in the assay on NCI-H226, 0.436 µM (active); in the assay with SK-MEL-5, 0.154 µM (active); in the assay on SF-295, 0.242 µM (active); in the assay with SNB-75 it was 0.338 µM (active); in the assay with K562, 0.228 µM (active). In addition, the GI50 is 0.183 µM (active) with HOP-92; 0.351 µM (active) in the assay on UACC-62; 0.237 µM (active) in the assay with HT-29; 0.157 µM (active) in the assay with HL-60; 0.256 µM (active) in the assay on KM12; 0.425 µM (active) in the assay with TK-10. In addition, the GI50 with SW-620 was 0.349 µM (active).

For the compound `CC[C@@]1(O)C(=O)OCc2c1cc1n(c2=O)Cc2c-1nc1ccccc1c2CC[Si](C)(C)C` [COSITECAN], the GI50 in the assay on LOX IMVI, with M14, with A498, in the assay with SN12C, in the assay with MCF7 and in the assay with SNB-19 was < 0.01 µM (active) throughout. In addition, the GI50 in the assay with U-251 was < 0.01 µM (active); in the assay on NCI-H226 it was < 0.01 µM (active); in the assay with SK-MEL-5, < 0.01 µM (active); with SF-295, < 0.01 µM (active); in the assay on SNB-75 it was < 0.01 µM (active); in the assay on K562, 0.0101 µM (active). The GI50 with HOP-92 is 0.115 µM (active); with UACC-62, < 0.01 µM (active); in the assay on HT-29, < 0.01 µM (active); in the assay on HL-60 it was < 0.01 µM (active); in the assay with KM12, 0.0367 µM (active); with TK-10, 0.131 µM (active). Also, the GI50 in the assay on SW-620 was 0.0101 µM (active).
